Data: PubChem BioAssay (NCI)
Several values for one entry are separate records, joined by “and”; a condition that tells them apart may be missing. Identical values can stand only once.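 Five concentrations, 48 hours, 96-well plates. Abbreviation: GI50, concentration required for 50% inhibition of growth. TGI: concentration producing complete growth inhibition.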

What was measured:
Assay in all cases: DTP human tumour cell line panel, 48 h
A498 renal = system: A498 renal
DLD-1 colon = system: DLD-1 colon
KM20L2 colon = system: KM20L2 colon
M14 melanoma = system: M14 melanoma
OVCAR-8 ovarian = system: OVCAR-8 ovarian
XF 498 CNS = system: XF 498 CNS
DMS 273 small cell lung = system: DMS 273 small cell lung
M19-MEL melanoma = system: M19-MEL melanoma
HS 578T breast = system: HS 578T breast
MCF7 breast = system: MCF7 breast
MDA-MB-435 = system: MDA-MB-435

| Compound | TGI (A498 renal) [µM] | TGI (DLD-1 colon) | TGI (KM20L2 colon) | TGI (M14 melanoma) | TGI (OVCAR-8 ovarian) | TGI (XF 498 CNS) [µM] | TGI (DMS 273 small cell lung) [µM] | TGI (M19-MEL melanoma) | GI50 (A498 renal) [µM] | GI50 (HS 578T breast) [µM] | TGI (HS 578T breast) [µM] | GI50 (M14 melanoma) | GI50 (MCF7 breast) [µM] | TGI (MCF7 breast) [µM] | GI50 (MDA-MB-435) [µM] | TGI (MDA-MB-435) [µM] | GI50 (OVCAR-8 ovarian) [µM] | GI50 (DLD-1 colon) [µM] | GI50 (M19-MEL melanoma) [µM] |
| --- | --- | --- | --- | --- | --- | --- | --- | --- | --- | --- | --- | --- | --- | --- | --- | --- | --- | --- | --- |
| CCOC(=O)CN1C(=O)c2cccc3cc([N+](=O)[O-])cc(c23)C1=O | 30.6 | 5.43 µM | 26.5 µM | 11.5 µM | 3.43 µM | 4.49 | – | – | – | – | – | – | – | – | – | – | – | – | – |
| C/C(CC(=O)CCC(=O)Nc1cccc(C(F)(F)F)c1)=N\NC(=O)NN | > 100 | > 100 µM | > 100 µM | > 100 µM | > 100 µM | > 100 | > 100 | > 100 µM | – | – | – | – | – | – | – | – | – | – | – |
| Brc1ccc(N=c2nc3ccccn3n3nc(-c4ccccc4)cc23)cc1 | – | 47.7 µM | > 100 µM | 33 µM | > 100 µM | 77 | – | > 100 µM | – | – | – | – | – | – | – | – | – | – | – |
| COC1CCC2C(NS(=O)(=O)c3ccc(C)cc3)CCCC2O1 (stereo not drawn) (tested in a mixture with another compound) | > 34.5 | > 34.5 µM | > 34.5 µM | > 34.5 µM | > 34.5 µM | – | 22.8 | > 34.5 µM | – | – | – | – | – | – | – | – | – | – | – |
| CSc1nc2c(c(=O)[nH]1)N=C1c3ccccc3C(=O)C1C(c1ccccc1)N2 (stereo not drawn) | 38 | – | – | > 100 µM | > 100 µM | – | – | – | 2 | 2.1 | 7.18 | 3.29 µM | 2.4 | > 100 | 0.494 | 6.91 | 19.1 | – | – |
| COC(=O)[C@@H]1[C@H](O)[C@H](C)[C@H](O)[C@@](C)(O)/C=C\C=C(C)C(=O)Nc2c(C)c(OC(C)=O)c3c(c2O)C(=O)C(C)=C2OCOC(=C23)C(C)=C[C@@](C)(O)[C@H](O)[C@@H](C)[C@H]1OC(C)=O | > 100 | > 100 µM and 66.9 µM | 66.9 µM and > 100 µM | > 100 µM and 66.9 µM and 86.5 µM | > 100 µM and 66.9 µM | – | > 100 | > 100 µM and 21.6 µM and 28.3 µM | – | – | – | > 100 µM and 21 µM and 29.1 µM | – | – | – | – | 42.3 | 40.7 | 15 |
| O=C(Nc1ccccc1OC(F)(F)F)Nc1n[nH]c2ccccc12 | > 100 | – | – | > 100 µM | > 100 µM | – | – | – | > 100 | 19.4 | > 100 | 25.5 µM | 1.75 | > 100 | 51.5 | > 100 | 29.6 | – | – |
| CC(C)=CC(=O)C1c2cccc(O)c2C(=O)c2c(O)cc(C)cc21 (stereo not drawn) | 37.3 | 7.89 µM | 17.6 µM | 10.1 µM | 7.58 µM | 3.11 | 9.46 | 3.43 µM | – | – | – | – | – | – | – | – | – | – | – |
| CC/C=C\CCC/C=C1/C(=O)C=C[C@@H]1C/C=C\CCCC(=O)OC | 34.7 | – | – | 10.1 µM | 12.8 µM | – | – | – | 19.8 | 10.6 | 53.3 | 3.17 µM | 2.69 | 13.9 | 2.49 | 6.39 | 3.71 | – | – |
| CCCCC(=O)OCC(=O)[C@]1(O)Cc2c(O)c3c(c(O)c2[C@@H](OC2CC(NC(=O)C(F)(F)F)C(O)C(C)O2)C1)C(=O)c1c(OC)cccc1C3=O (stereo partly drawn) | 0.948 | 13.2 µM | > 100 µM | 8.62 µM | > 39.6 µM | 0.97 | 3.39 | 1.9 µM | – | – | 5.05 | – | – | – | – | > 100 | – | – | – |
| Cc1ccc2c(=O)cc(-c3ccc(F)cc3)[nH]c2n1 | 66.6 | – | – | > 100 µM | > 100 µM | – | – | – | – | – | > 100 | – | – | > 100 | 5.87 | 22.2 | – | – | – |
| N#CC1C(C#N)C2(c3ccccc3)C(c3ccccc3)=NN(c3ccccc3)CC12 (stereo not drawn) | > 100 | > 100 µM | > 100 µM | > 100 µM | > 100 µM | > 100 | > 100 | > 100 µM | – | – | – | – | – | – | – | – | – | – | – |
| O=C(CC1(O)C(=O)Nc2c(Cl)cc(Cl)cc21)c1ccc(Br)cc1Br (stereo not drawn) | 40 | 24.1 µM | 33.9 µM | 18.5 µM | 17.6 µM | 23.8 | 22.9 | 25.1 µM | – | – | 26.5 | – | – | 29.6 | – | 25.5 | – | – | – |
| CN(C)C(=N)c1ccccc1 | – | – | > 100 µM | > 100 µM | > 100 µM | > 100 | > 100 | > 100 µM | – | – | – | – | – | – | – | – | – | – | – |
| CC(C)C/C(CC(=O)CCC(=O)Nc1ccccc1[N+](=O)[O-])=N\NC(=O)c1cc2ccccc2cc1O | – | > 100 µM | > 100 µM | > 100 µM | 95.8 µM | > 100 | – | 65.1 µM | – | – | – | – | – | – | – | – | – | – | – |
| COc1cc(Cc2cnc(/N=C3\C(=O)N(CN4CCN(c5c(F)cc6c(=O)c(C(=O)O)cn(C7CC7)c6c5OC)CC4C)c4ccc(F)cc43)nc2N)cc(OC)c1OC (stereo not drawn) | 49.7 | – | – | 22 µM | > 100 µM | – | – | – | 26 | 23.6 | 82.5 | 10.3 µM | 8.35 | 52.8 | 14.2 | 32.9 | 32.1 | – | – |
| COC1(OC)CCC2C1C1CCC(OC)(OC)C21 (stereo not drawn) | > 50 | > 50 µM | > 50 µM | > 50 µM | > 50 µM | > 50 | > 50 | > 50 µM | – | – | – | – | – | – | – | – | – | – | – |
| CC1=C(C(=O)NCc2ccccc2)C(/C=C/c2ccccc2)C(C(=O)NCc2ccccc2)=C(C)N1 | > 100 | > 100 µM | > 100 µM | > 100 µM | > 100 µM | > 100 | > 100 | > 100 µM | – | – | – | – | – | – | – | – | – | – | – |
